The test system of one assay is SK-BR-3 cells. In words: Determination of cell growth inhibition (crystal violet staining method). Format: cell-based. To be noted: Homo sapiens; breast cancer cells SK-BR-3, 72 hours culture with test substance. In short, it runs like this: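 SK-BR-3 cells seeded 5,000/well, cultured 24 h at 37 °C, then exposed to compound for 72 h. Cells fixed with glutaraldehyde, stained with 0.05% crystal violet, eluted and read at 540 nm; percent growth inhibition calculated versus untreated wells.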

Assay [1] concerns the target human HSP90 alpha protein (N-terminal, amino acids 2 to 236) (Homo sapiens (Human), UniProt P07900). In words: Determination of HSP90-binding activity (AlphaScreen competitive assay with biotinylated geldanamycin). The note with it: inhibition of binding of biotinylated geldanamycin to purified HSP90 N-terminal protein, read-out: HSP-binding activity IC50. In short, it runs like this:
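His-tagged N-terminal construct (aa 2–236) expressed in E. coli and purified was preincubated with compound 2 h at room temperature, then biotinylated geldanamycin (40 nM/well) added for 1 h. AlphaScreen nickel-chelate acceptor/streptavidin donor beads, 1 h dark; percent inhibition calculated against no-compound signal.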

Here are results for 27 molecules from patent US8912181B2 (Taiho Pharmaceutical Co., Ltd., priority 2011, dated 2014).

Regarding `CCNc1cc(-c2nc(C(F)(F)F)nc3c(-n4cnc(-c5cnn(C)c5)c4)cccc23)ccc1C(N)=O` [Example 80, 2-(Ethylamino)-4-(8-(4-(1-methyl-1H-pyrazol-4-yl)-1H-imidazol-1-yl)-2-(trifluoromethyl)quinazolin-4-yl)benzamide], the IC50 – broadly, the concentration that gives 50% inhibition – with SK-BR-3 cells is 20 nM; in assay [1], 140 nM.

On to `Cn1cc(-c2cn(-c3cccc4c(-c5ccc(C(N)=O)c(Cl)c5)cc(C(F)(F)F)nc34)cn2)cn1` [Example 81, 2-Chloro-4-(8-(4-(1-methyl-1H-pyrazol-4-yl)-1H-imidazol-1-yl)-2-(trifluoromethyl)quinolin-4-yl)benzamide], for which the IC50 with SK-BR-3 cells came out at 760 nM; in assay [1], 870 nM.

For `Cn1cc(-c2cn(-c3cccc4c(-c5ccc(C(N)=O)nc5)cc(C(F)(F)F)nc34)cn2)cn1` [Example 83, 5-(8-(4-(1-Methyl-1H-pyrazol-4-yl)-1H-imidazol-1-yl)-2-(trifluoromethyl)quinolin-4-yl)picolinamide], the results for the IC50 (in the assay on SK-BR-3 cells; in assay [1]) were 100 nM and 210 nM, respectively.

Regarding `Cc1cc(C(N)=O)ccc1-c1cc(C(F)(F)F)nc2c(-n3cnc(-c4cnn(C)c4)c3)cccc12` [Example 84, 3-Methyl-4-(8-(4-(1-methyl-1H-pyrazol-4-yl)-1H-imidazol-1-yl)-2-(trifluoromethyl)quinolin-4-yl)benzamide], the IC50 turned out to be 110 nM in the assay on SK-BR-3 cells and 220 nM in assay [1].

`Cn1cc(-c2cn(-c3cccc4c(-c5ccc(C(N)=O)c(NC(C)(C)C)c5)cc(C(F)(F)F)nc34)cn2)cn1` [Example 86, 2-(Tert-butylamino)-4-(8-(4-(1-methyl-1H-pyrazol-4-yl)-1H-imidazol-1-yl)-2-(trifluoromethyl)quinolin-4-yl)benzamide]: the IC50 in the assay on SK-BR-3 cells amounted to 10 nM; in assay [1], 100 nM.

`CCCNc1cc(C(N)=O)ccc1-c1cc(C(F)(F)F)nc2c(-n3cnc(-c4cnn(C)c4)c3)cccc12` [Example 87, 4-(8-(4-(1-Methyl-1H-pyrazol-4-yl)-1H-imidazol-1-yl)-2-(trifluoromethyl)quinolin-4-yl)-3-(propylamino)benzamide]: the IC50 with SK-BR-3 cells turned out to be 80 nM; in assay [1] it was 280 nM.

Take `NC(=O)c1ccc(-c2cc(C(F)(F)F)nc3c(-n4cnc(-c5cccnc5)c4)cccc23)cn1` [Example 88, 5-(8-(4-(Pyridin-3-yl)-1H-imidazol-1-yl)-2-(trifluoromethyl)quinolin-4-yl)picolinamide]: the IC50 was 70 nM in the assay on SK-BR-3 cells and 350 nM in assay [1].

On to `CCNc1cc(-c2cc(C(F)(F)F)nc3c(-n4cnc(-c5cnn(CC)c5)c4)cccc23)ccc1C(N)=O` [Example 89, 4-(8-(4-(1-Ethyl-1H-pyrazol-4-yl)-1H-imidazol-1-yl)-2-(trifluoromethyl)quinolin-4-yl)-2-(ethylamino)benzamide], for which the IC50 came to 10 nM with SK-BR-3 cells and 220 nM in assay [1].

Turning to `CCn1cc(-c2cn(-c3cccc4c(-c5ccc(C(N)=O)c(NC(C)(C)C)c5)cc(C(F)(F)F)nc34)cn2)cn1` [Example 90, 2-(Tert-butylamino)-4-(8-(4-(1-ethyl-1H-pyrazol-4-yl)-1H-imidazol-1-yl)-2-(trifluoromethyl)quinolin-4-yl)benzamide], the IC50 in the assay with SK-BR-3 cells came to 30 nM; in assay [1], 580 nM.

For `CC(C)(C)Nc1cc(-c2cc(C(F)(F)F)nc3c(-n4cnc(-c5cnn(C(F)F)c5)c4)cccc23)ccc1C(N)=O` [Example 92, 2-(Tert-butylamino)-4-(8-(4-(1-difluoromethyl-1H-pyrazol-4-yl)-1H-imidazol-1-yl)-2-(trifluoromethyl)quinolin-4-yl)benzamide], the IC50 in the assay on SK-BR-3 cells was found to be 20 nM; in assay [1], 790 nM.

On to `Cc1cc2c(-n3cnc(-c4cnn(C)c4)c3)cccc2c(-c2ccc(C(N)=O)c(NC(C)(C)C)c2)n1` [Example 93, 2-(Tert-butylamino)-4-(3-methyl-5-(4-(1-methyl-1H-pyrazol-4-yl)-1H-imidazol-1-yl)isoquinolin-1-yl)benzamide], for which the IC50 in the assay on SK-BR-3 cells is 20 nM; in assay [1] it was 100 nM.

As to `Cc1cc(C(N)=O)ccc1-c1cc(C(F)(F)F)nc2c(-n3cnc(-c4cnn(C(F)F)c4)c3)cccc12` [Example 94, 4-(8-(4-(1-Difluoromethyl-1H-pyrazol-4-yl)-1H-imidazol-1-yl)-2-(trifluoromethyl)quinolin-4-yl)-3-methylbenzamide], the values for the IC50 (in the assay with SK-BR-3 cells; in assay [1]) were 110 nM and 500 nM, respectively.

`Cc1cc2c(-n3cnc(-c4cnn(C)c4)c3)cccc2c(-c2ccc(C(N)=O)cc2C)n1` [Example 95, 3-Methyl-4-(3-methyl-5-(4-(1-methyl-1H-pyrazol-4-yl)-1H-imidazol-1-yl)isoquinolin-1-yl)benzamide]: the IC50 in the assay on SK-BR-3 cells amounted to 1020 nM; in assay [1], 400 nM.

Take `Cn1cc(-c2cn(-c3cccc4c(-c5ccc(C(N)=O)c(NC(C)(C)C)c5)nccc34)cn2)cn1` [Example 96, 2-(Tert-butylamino)-4-(5-(4-(1-methyl-1H-pyrazol-4-yl)-1H-imidazol-1-yl)isoquinolin-1-yl)benzamide]: the IC50 in the assay on SK-BR-3 cells came to 60 nM; in assay [1], 140 nM.

In the case of `Cc1cc(-c2ccc(C(N)=O)c(NC(C)(C)C)c2)c2cccc(-n3cnc(-c4cnn(C)c4)c3)c2n1` [Example 97, 2-(Tert-butylamino)-4-(2-methyl-8-(4-(1-methyl-1H-pyrazol-4-yl)-1H-imidazol-1-yl)quinolin-4-yl)benzamide], the IC50 with SK-BR-3 cells was found to be 20 nM; in assay [1], 160 nM.

Consider `COCCNc1cc(-c2nc(C)cc3c(-n4cnc(-c5cnn(C)c5)c4)cccc23)ccc1C(N)=O` [Example 98, 2-(2-Methoxyethylamino)-4-(3-methyl-5-(4-(1-methyl-1H-pyrazol-4-yl)-1H-imidazol-1-yl)isoquinolin-1-yl)benzamide], for which the IC50 with SK-BR-3 cells was 20 nM; in assay [1] it was 80 nM.

Regarding `Cc1ccc(-c2cn(-c3cccc4c(-c5ccc(C(N)=O)c(NC(C)(C)C)c5)cc(C(F)(F)F)nc34)cn2)cn1` [Example 99, 2-(Tert-butylamino)-4-(8-(4-(6-methylpyridin-3-yl)-1H-imidazol-1-yl)-2-(trifluoromethyl)quinolin-4-yl)benzamide], the concentration for half-maximal inhibition (IC50) with SK-BR-3 cells came out at 40 nM; in assay [1], 270 nM.

With `Cc1ccc(-c2cn(-c3cccc4c(-c5ccc(C(N)=O)cc5C)cc(C(F)(F)F)nc34)cn2)cn1` [Example 100, 3-Methyl-4-(8-(4-(6-methylpyridin-3-yl)-1H-imidazol-1-yl)-2-(trifluoromethyl)quinolin-4-yl)benzamide], the IC50 with SK-BR-3 cells turned out to be 260 nM; in assay [1] it was 340 nM.

As to `Cc1cc(-c2ccc(C(N)=O)c(N)c2)c2cccc(-n3cnc(-c4cnn(C)c4)c3)c2n1` [Example 101, 2-Amino-4-(2-methyl-8-(4-(1-methyl-1H-pyrazol-4-yl)-1H-imidazol-1-yl)quinolin-4-yl)benzamide], the half-inhibitory concentration (IC50) (with SK-BR-3 cells; in assay [1]) was 120 nM in each case.

For `Cc1cc(-c2ccc(C(N)=O)cc2C)c2cccc(-n3cnc(-c4cnn(C)c4)c3)c2n1` [Example 102, 3-Methyl-4-(2-methyl-8-(4-(1-methyl-1H-pyrazol-4-yl)-1H-imidazol-1-yl)quinolin-4-yl)benzamide], the IC50 was found to be 630 nM with SK-BR-3 cells and 250 nM in assay [1].

Take `CCc1cc(-c2ccc(C(N)=O)c(NC(C)(C)C)c2)c2cccc(-n3cnc(-c4cnn(C)c4)c3)c2n1` [Example 103, 2-(Tert-butylamino)-4-(2-ethyl-8-(4-(1-methyl-1H-pyrazol-4-yl)-1H-imidazol-1-yl)quinolin-4-yl)benzamide]: the IC50 in the assay on SK-BR-3 cells worked out at 10 nM; in assay [1], 120 nM.

Consider `CCc1cc(-c2ccc(C(N)=O)c(N)c2)c2cccc(-n3cnc(-c4cnn(C)c4)c3)c2n1` [Example 104, 2-Amino-4-(2-ethyl-8-(4-(1-methyl-1H-pyrazol-4-yl)-1H-imidazol-1-yl)quinolin-4-yl)benzamide], for which the IC50 in the assay with SK-BR-3 cells was determined as 10 nM; in assay [1], 60 nM.

For the molecule `Cn1cc(-c2cn(-c3cccc4c(-c5ccc(C(N)=O)c(NC(C)(C)C)c5)cc(C5CC5)nc34)cn2)cn1` [Example 105, 2-(Tert-butylamino)-4-(2-cyclopropyl-8-(4-(1-methyl-1H-pyrazol-4-yl)-1H-imidazol-1-yl)quinolin-4-yl)benzamide], the IC50 with SK-BR-3 cells was 20 nM; in assay [1], 400 nM.

Consider `NC(=O)c1ccc(-c2cc(C(F)(F)F)nc3c(-n4cnc(-c5ccccc5)c4)cccc23)cc1N` [Example 108, 2-Amino-4-(8-(4-phenyl-1H-imidazol-1-yl)-2-(trifluoromethyl)quinolin-4-yl)benzamide], for which the IC50 came to 340 nM in the assay with SK-BR-3 cells and 3750 nM in assay [1].

In the case of `CC(C)OCCNc1cc(-c2cc(C(F)(F)F)nc3c(-n4cnc(-c5ccccc5)c4)cccc23)ccc1C(N)=O` [Example 109, 2-(Isopropoxyethylamino)-4-(8-(4-phenyl-1H-imidazol-1-yl)-2-(trifluoromethyl)quinolin-4-yl)benzamide], the IC50 came out at 210 nM with SK-BR-3 cells and 4360 nM in assay [1].

As for `NC(=O)c1ccc(-c2cc(C(F)(F)F)nc3c(-c4cnc5ccccc5c4)cccc23)cc1N` [Example 110, 2-Amino-4-(2′-(trifluoromethyl)-3,8′-biquinolin-4′-yl)benzamide], the IC50 was determined as 100 nM in the assay on SK-BR-3 cells and 380 nM in assay [1].

As for `CC(C)OCCNc1cc(-c2cc(C(F)(F)F)nc3c(-c4cnc5ccccc5c4)cccc23)ccc1C(N)=O` [Example 111, 2-(2-Isopropoxyethylamino)-4-(2′-(trifluoromethyl)-3,8′-biquinolin-4′-yl)benzamide], the IC50 with SK-BR-3 cells came to 60 nM; in assay [1], 840 nM.
